Measurements published in patent publication US20240342292A1, “Compounds for the Degradation of EGFR Kinase” (BeiGene Switzerland GmbH, priority 2021, published 2024).

Assays:
L858R/T790M/C797S EGFR = biological target: T1, L858R/T790M/C797S EGFR (Homo sapiens, UniProt P00533, C797S/L858R/T790M); assay: EGFR degradation HTRF assay in H1975-clone #25 (LTC) cells; type: cell-based; settings: 16h treatment; for DC50: H1975 # 25-LTC (L858R/T790M/C797S), HTRF; for Dmax: NCI-H1975, H1975 # 25-LTC (L858R/T790M/C797S), maximum percentage of degradation
T1 construct: expressed in transfected cells; host or cells: H1975 clone #25 (lentiviral over-expression, endogenous EGFR knocked out by sgRNA)
T1 sequence (P00533 25-1210 T790M/C797S/L858R): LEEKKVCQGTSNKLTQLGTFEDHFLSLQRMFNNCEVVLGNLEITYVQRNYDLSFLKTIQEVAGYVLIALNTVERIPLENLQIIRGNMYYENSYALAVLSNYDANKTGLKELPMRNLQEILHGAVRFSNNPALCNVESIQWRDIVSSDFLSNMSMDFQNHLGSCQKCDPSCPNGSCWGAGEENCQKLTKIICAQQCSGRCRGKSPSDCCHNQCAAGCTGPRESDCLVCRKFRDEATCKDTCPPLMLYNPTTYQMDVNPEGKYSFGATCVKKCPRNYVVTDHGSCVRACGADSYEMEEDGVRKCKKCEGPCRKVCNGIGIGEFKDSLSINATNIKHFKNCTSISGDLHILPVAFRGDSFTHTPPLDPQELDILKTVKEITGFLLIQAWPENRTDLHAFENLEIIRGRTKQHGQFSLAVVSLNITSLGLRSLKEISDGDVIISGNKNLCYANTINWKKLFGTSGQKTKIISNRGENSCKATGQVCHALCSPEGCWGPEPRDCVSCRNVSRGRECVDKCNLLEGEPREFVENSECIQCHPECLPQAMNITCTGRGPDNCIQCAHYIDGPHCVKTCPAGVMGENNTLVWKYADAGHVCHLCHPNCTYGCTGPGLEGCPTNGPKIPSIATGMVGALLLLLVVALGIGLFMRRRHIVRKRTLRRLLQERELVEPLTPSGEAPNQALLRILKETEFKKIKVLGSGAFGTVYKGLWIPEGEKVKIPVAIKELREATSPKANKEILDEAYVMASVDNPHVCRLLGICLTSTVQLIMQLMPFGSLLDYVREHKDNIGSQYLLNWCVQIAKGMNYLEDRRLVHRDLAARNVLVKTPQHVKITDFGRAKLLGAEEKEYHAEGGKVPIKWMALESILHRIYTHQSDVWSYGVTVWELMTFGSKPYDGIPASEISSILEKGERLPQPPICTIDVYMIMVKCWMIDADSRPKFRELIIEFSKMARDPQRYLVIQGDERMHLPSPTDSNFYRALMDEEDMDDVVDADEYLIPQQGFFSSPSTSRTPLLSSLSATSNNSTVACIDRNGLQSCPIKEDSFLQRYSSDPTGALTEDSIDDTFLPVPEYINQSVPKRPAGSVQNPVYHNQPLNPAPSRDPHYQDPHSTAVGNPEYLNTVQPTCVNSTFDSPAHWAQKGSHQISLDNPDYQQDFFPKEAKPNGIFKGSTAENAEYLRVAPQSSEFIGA
From the text: (§1) H1975-clone #28(Del19/T790M/C797S, or abbr: DTC), H1975-clone #23(Del19/C797S, or abbr: DC), H1975-clone #25(L858R/T790M/C797S, or abbr: LTC) and H1975-clone #8 (L858R/C797S, or abbr: LC). EGFR-Del19:T790M/C797S, EGFR-Del19/C797S, EGFR-L858R/T790M/C797S and EGFR-L858R/C797S were stably expressed in H1975 cell lines by lentivirus-mediated over-expression, respectively. The EGFR over-expressed cells then underwent knockout, in which the EGFR targeting sgRNA was designed to only target the endogenous EGFR copies and preserve the exogenous EGFR copies. Followed by the knockout, the edited H1975 cells were seeded in 96 well plates at the concentration of […], cultured for about 2 weeks to allow single clones formation. The formed clones were screened by DNA sequencing and whole exon sequencing analysis for the desired edition. H1975-clone #28, H1975-clone #23, H1975-clone #25 and H1975-clone #8 were finally confirmed as homozygous Del19/T790M/C797S EGFR, Dell9/C797S EGFR, L858R/T790M/C797S EGFR and L858R/C797S EGFR clones, respectively.
(§2) H1975-#25, H1975-#28, H1975-#23 and H1975-#8 cells are treated with compounds diluted in 0.2% DMSO cell culture medium on day 2, incubate for 16h, 37° C., 5% CO2. the final concentration of compounds in all assay is start with 10 uM, 5-fold dilution, total 8 doses were included.
(§3) After 16h treatment, add HTRF lysis buffer to each well; seal the plate and incubate 1 hour at room temperature on a plate shaker; Once the cells are lysed, 16 μL of cell lysate are transferred to a PE 384-well HTRF detection plate; 4 μL of pre-mixed HTRF antibodies are added to each well; Cover the plate with a plate sealer, spin 1000 rpm for 1 min, Incubate overnight at room temperature; Read on BMG PheraStar with HTRF protocol (337 nm-665 nm-620 nm).
(§4) The IC50 (DC50) value of a compound can be obtained by fitting the following equation
(§5) Y=Bottom+(TOP−Bottom)/(1+((IC50/X)^hillslope))
(§6) Wherein, X and Y are known values, and IC50, Hillslope, Top and Bottom are the parameters obtained by fitting with software. Y is the inhibition percentage (calculated from the equation), X is the concentration of the compound: IC50 is the concentration of the compound when the 50% inhibition is reached. The smaller the IC50 value is, the stronger the inhibitory ability of the compound is. Vice versa, the higher the IC50 value is, the weaker the ability the inhibitory ability of the compound is: Hillslope represents the slope of the fitted curve, generally around 1*; Bottom represents the minimum value of the curve obtained by data fitting, which is generally 0%±20%; Top represents the maximum value of the curve obtained by data fitting, which is generally 100%±20%. The experimental data were fitted by calculating and analyzing with Dotmatics data analysis software.

Del19/T790M/C797S EGFR = assay: EGFR degradation HTRF assay in H1975-clone #28 (DTC) cells; type: cell-based; settings: H1975 # 28 DTC (Del19/T790M/C797S), 16h treatment; for DC50: HTRF; for Dmax (%): maximum percentage of degradation
From the text: as §1, §2, §3, §4, §5, §6

Row | SMILES | DC50 (L858R/T790M/C797S EGFR) [pM] | Dmax (L858R/T790M/C797S EGFR) [%] | DC50 (Del19/T790M/C797S EGFR) [pM] | Dmax (%) (Del19/T790M/C797S EGFR)
1 | Cc1cc2cc(n1)-c1cnn(C)c1OCCC[C@@H](C)CN1/C(=N/C2=O)Nc2ccc(C(=O)N(C)[C@@H]3CCN(CCc4cc(F)c([C@H]5CCC(=O)NC5=O)c(F)c4)CC3(F)F)cc21 [Example 250, (R,E)-N—((R)-1-(4-((R)-2,6-dioxopiperidin-3-yl)-3,5-difluorophenethyl)-3,3-difluoropiperidin-4-yl)-N,1^1,2^6,7-tetramethyl-3-oxo-5^2,5^3-dihydro-1^1H,5^1H-11-oxa-4-aza-5(2,1)-benzo[d]imidazola-2(2,4)-pyridina-1(4,5)-pyrazolacycloundecaphane-5^6-carboxamide] | 1060 | 88.9 | 590 | 82.13
2 | Cc1cc2cc(n1)-c1cnn(C)c1OCCC[C@@H](C)CN1/C(=N/C2=O)Nc2ccc(C(=O)NC3CCN(CCc4cc(F)c([C@H]5CCC(=O)NC5=O)c(F)c4)CC3)cc21 [Example 242, (R,E)-N-(1-(4-((R)-2,6-dioxopiperidn-3-yl)-3,5-difluorophenethyl)piperidin-4-yl)-1^1,2^6,7-trimethyl-3-oxo-5^2,5′-dihydro-1^1H,5^1H-li-oxa-4-aza-5(2,1)-benzo[d]imidazola-2(2,4)-pyridina-1(4,5)-pyrazolacycloundecaphane-5^6-carboxamide] | 321 | 93.2 | 352 | 88.18
3 | COC[C@H]1CN(C(=O)C2CCN(c3ccc4c(c3)N3C[C@H](C)CCCOc5c(cnn5C)-c5cc(cc(C)n5)C(=O)/N=C/3N4)CC2)CCN1c1cc(F)c([C@H]2CCC(=O)NC2=O)c(F)c1 [Example 363, (R)-3-(2,6-difluoro-4-((R)-2-(methoxymethyl)-4-(1-((R,E)-1^1,2^6,7-trimethyl-3-oxo-5^2,5^3-dihydro-1^1H,5^1H-11-oxa-4-aza-5(2,1)-benzo[d]imidazola-2(2,4)-pyridina-1(4,5)-pyrazolacycloundecaphane-5^6-yl)piperidine-4-carbonyl)piperazin-1-yl)phenyl)piperidine-2,6-Dione] | 643 | 87.5 | 614 | 78.54
4 | Cc1cc2cc(n1)-c1cnn(C)c1OCCC[C@@H](C)CN1/C(=N/C2=O)Nc2ccc(C(=O)N(C)C3CCC(N(C)CCc4cc(F)c([C@H]5CCC(=O)NC5=O)c(F)c4)CC3)cc21 (stereo partly drawn) [Example 278, (R,E)-N-(4-((4-((R)-2,6-dioxopiperidin-3-yl)-3,5-difluorophenethyl)(methyl)amino)cyclohexyl)-N,1^1,2^6,7-tetramethyl-3-oxo-5^2,5^3-dihydro-1^1H,5^1H-11-oxa-4-aza-5(2,1)-benzo[d]imidazola-2(2,4)-pyridina-1(4,5)-pyrazolacycloundecaphane-5^6-carboxamide] | 804 | 74.2 | 567 | 52.21
5 | CO[C@@H]1CN(CCc2cc(F)c([C@H]3CCC(=O)NC3=O)c(F)c2)CC[C@@H]1N(C)C(=O)c1ccc2c(c1)N1C[C@H](C)CCCOc3c(cnn3C)-c3cc(cc(C)n3)C(=O)/N=C/1N2 [Example 252, (R,E)-N—((3R,4S)-1-(4-((R)-2,6-dioxopiperidin-3-yl)-3,5-difluorophenethyl)-3-methoxypiperidin-4-yl)-N,1^1,2^6,7-tetramethyl-3-oxo-5^2,5^3-dihydro-1^1H,5^1H-11-oxa-4-aza-5(2,1)-benzo[d]imidazola-2(2,4) -pyridina-1(4,5)-pyrazolacycloundecaphane-5^4-carboxamide] | 584 | 92.4 | 606 | 77.32
6 | Cc1cc2cc(n1)-c1cnn(C)c1OCCC[C@@H](C)CN1/C(=N/C2=O)Nc2ccc(CN3CC4(CCN(CCc5cc(F)c([C@H]6CCC(=O)NC6=O)c(F)c5)CC4)C3)cc21 [Example 93, (R)-3-(2,6-difluoro-4-(2-(2-(((R,E)-1^1,2^6,7-trimethyl-3-oxo-5^2,5^3-dihydro-1^1H,5^1H-11-oxa-4-aza-5(2,1)-benzo[d]imidazola-2(2,4)-pyridina-1(4,5)-pyrazolacycloundecaphane-5^6-yl)methyl)-2,7-diazaspiro[3.5]nonan-7-yl)ethyl)phenyl)piperidine-2,6-dione] | 1900 | 92.7 | – | –
7 | Cc1cc2cc(n1)-c1cnn(C)c1OCCC[C@@H](C)CN1/C(=N/C2=O)Nc2ccc(CN3CCN(C[C@H]4CCN(c5cc(F)c([C@H]6CCC(=O)NC6=O)c(F)c5)C4)CC3)cc21 [Example 90, (R)-3-(2,6-difluoro-4-((R)-3-((4-(((R,E)-1^1,2^6,7-trimethyl-3-oxo-5^2,5^3-dihydro-^1H,5^1H-11-oxa-4-aza-5(2,1)-benzo[d]imidazola-2(2,4)-pyridina-1(4,5)-pyrazolacycloundecaphane-5^6-yl)methyl)piperazin-1-yl)methyl)pyrrolidin-1-yl)phenyl)piperidine-2,6-dione] | 1100 | 86.9 | – | –
8 | Cc1cc2cc(n1)-c1cnn(C)c1OCCC[C@@H](C)CN1/C(=N/C2=O)Nc2ccc(CN3CCC4(CC3)CCN(CC3CCN(c5ccc6c(c5)CN(C5CCC(=O)NC5=O)C6=O)CC3)CC4)cc21 (stereo partly drawn) [Example 21, 3-(1-oxo-5-(4-((9-(((R,E)-1^1,2^6,7-trimethyl-3-oxo-5^2,5^3-dihydro-1^1H,5^1H-11-oxa-4-aza-5(2,1)-benzo[d]imidazola-2(2,4)-pyridina-1(4,5)-pyrazolacycloundecaphane-5^6-yl)methyl)-3,9-diazaspiro[5.5]undecan-3-yl)methyl)piperidin-1-yl)isoindolin-2-yl)piperidine-2,6-dione] | 2700 | 77.8 | – | –
9 | Cc1cc2cc(n1)-c1cnn(C)c1OCCC[C@@H](C)CN1/C(=N/C2=O)Nc2ccc(CN3CCN(C[C@@H]4CCN(c5cc(F)c([C@H]6CCC(=O)NC6=O)c(F)c5)C4)CC3)cc21 [Example 88, (R)-3-(2,6-difluoro-4-((S)-3-((4-(((R,E)-1^1,2^6,7-trimethyl-3-oxo-5^2,5^3-dihydro-1^1H,5^1H-1l-oxa-4-aza-5(2,1)-benzo[d]imidazola-2(2,4)-pyridina-1(4,5)-pyrazolacycloundecaphane-5^6-yl)methyl)piperazin-1-yl)methyl)pyrrolidin-1-yl)phenyl)piperidine-2,6-dione] | 1500 | 78.5 | – | –
10 | Cc1cc2cc(n1)-c1cnn(C)c1OCCC[C@@H](C)CN1/C(=N/C2=O)Nc2ccc(CN3CCN(CCc4cc(F)c([C@H]5CCC(=O)NC5=O)c(F)c4)[C@H](C)C3)cc21 [Example 107, (R)-3-(2,6-difluoro-4-(2-((R)-2-methyl-4-(((R,E)-1^1,2^6,7-trimethyl-3-oxo-5^2,5^3-dihydro-1^1H,5^1H-11-oxa-4-aza-5(2,1)-benzo[d]imidazola-2(2,4)-pyridina-1(4,5)-pyrazolacycloundecaphane-5^6-yl)methyl)piperazin-1-yl)ethyl)phenyl)piperidine-2,6-dione] | 600 | 82.5 | – | –
11 | Cc1cc2cc(n1)-c1cnn(C)c1OCCC[C@@H](C)CN1/C(=C/C2=O)Nc2ccc(CN3CCC(N4CCC(c5cc(F)c([C@H]6CCC(=O)NC6=O)c(F)c5)CC4)CC3)cc21 [Example 16, (R)-3-(2,6-difluoro-4-(1′-(((R,E)-1^1,2^6,7-trimethyl-3-oxo-5^2,5^3-dihydro-1^1H,5^1H-11-oxa-4-aza-5(2,1)-benzo[d]imidazola-2(2,4)-pyridina-1(4,5)-pyrazolacycloundecaphane-5^6-yl)methyl)-[1,4′-bipiperidin]-4-yl)phenyl)piperidine-2,6-dione] | 10600 | 82.1 | – | –
